Measured values published in PubChem BioAssay (NCI).
Where “and” joins values, the source holds several entries; their conditions need not be identical. Equal entries are not always repeated.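 Exposure lasted 48 hours, with cells grown in 96-well plates and compounds tested at five concentrations. GI50 = concentration required for 50% inhibition of growth. TGI denotes the concentration required for complete inhibition of growth.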

Tested on: MDA-MB-468 breast
Test: DTP human tumour cell line panel, 48 h

Row | SMILES | GI50 | TGI
1 | COc1ccc2c(c1)[nH]c(=O)c1c3cccc(F)c3cn21 | 0.187 µM | 0.487 µM
2 | CCOC(=O)Oc1cc2c(c(OC)c1OC)-c1ccc(OC)c(=O)cc1C(NC(C)=O)CC2 (centres undefined) | < 0.01 µM | > 100 µM
3 | CCCCCCCCCCCCCCCCCCn1cc[n+](C)c1 | 0.215 µM | 1.64 µM
4 | Cc1ccc(/C=N/Nc2nc(Nc3ccccc3)nc(-n3nc(C)cc3C)n2)cc1 | 3.63 µM | 17.1 µM
5 | COc1cc(/C=C/C(=O)/C=C/c2ccc(-n3ccnc3C)cc2)ccc1O | 2.06 µM | 4.72 µM
6 | CCc1ccc(CCC(=O)Nc2ncc(Cc3ccc(Cl)cc3)s2)o1 | 0.342 µM | –
7 | Nc1ccc(C2=CC(c3ccc(Cl)cc3)N3C=CSC3=N2)cc1 (centres undefined) | 1.9 µM | 4.29 µM
8 | COC12C=C/C(=C(/C(=O)OCc3ccccn3)C(=O)CCCCCCCCC3(OC)C=C/C(=C(/C(=O)OCc4ccccn4)C(=O)CCCCCCCC1)O3)O2 | 0.314 µM | 1.15 µM
9 | COc1cccc(CC(C)=C(c2ccc(OCCN3CCCCC3)cc2)c2ccc(OCCN3CCCCC3)cc2)c1 | 0.641 µM | 2.71 µM
10 | COc1ncc(Nc2ncc([C@@H](C)N3CCN(S(C)(=O)=O)CC3)cc2-c2nc(C)nc(N)n2)cc1F | < 0.0148 µM | 0.16 µM
11 | COc1ccc(C/C(=C(\C)c2ccc(OCCN3CCCC3)cc2)c2ccc(OCCN3CCCC3)cc2)cc1 | 1.62 µM | 3.14 µM
12 | CCN(CC)CCCNc1cc(OC)cc2nc3cc(Cl)ccc3nc12 | 1.15 µM | 2.67 µM
13 | COc1ccc2c(c1OC)CO[C@@H]2[C@H]1c2c(cc3c(c2OC)OCO3)CCN1S(=O)(=O)c1cn(C)cn1 | 0.324 µM | 5.93 µM
14 | CC1=C(c2ccccc2)C(O)(c2ccccc2)C(C)C1=O (centres undefined) | 4.28 µM | 40.3 µM
15 | CCC(C)[C@H](NC(=O)Nc1cc(C(F)(F)F)cc(C(F)(F)F)c1)C(=O)N[C@@H](Cc1cn(C)cn1)C(=O)OC (some centres undefined) | 0.476 µM | 0.971 µM
16 | O=C(Nc1ccccc1)Nc1ccc2cc3ccc(NC(=O)Nc4ccccc4)cc3nc2c1 | 0.579 µM | 1.92 µM
17 | CC(C)(C)c1ccc(Oc2ccc(N)cn2)cc1 | 28.3 µM | > 100 µM
18 | Cc1ccccc1NC(=O)c1sc2nc(C)c(C(=O)/C=C/c3ccccc3)cc2c1N | 0.927 µM | 1.82 µM
19 | CC1C(C)N(C(=O)CCl)c2ccccc2N1C(=O)CCl (centres undefined) | 0.296 µM | 1.21 µM
20 | NCCCC[C@@H]1NC(=O)[C@H](CC(=O)O)NC(=O)CNC(=O)[C@H](CCCN=C(N)N)NC(=O)[C@@H](N)CSSC[C@@H](C(=O)O)NC(=O)[C@H](CC(=O)O)NC(=O)[C@@H]2CCCN2C(=O)CNC1=O | > 100 µM | > 100 µM

Row | SMILES | GI50 | TGI
21 | O=C(N/N=C\c1ccc(N(CCCl)CCCl)cc1[N+](=O)[O-])c1cccnc1 | > 100 µM | > 100 µM
22 | CNC(=O)c1c(NC(=O)c2ccc(C(C)(C)C)cc2)sc2c(CN(C)C)c(O)ccc12 | 1.67 µM | 3.36 µM
23 | CC1=C2[C@@H](CC1)[C@]1(C)O[C@@](C(C)C)(C[C@H]1OC(=O)CO)[C@H]2OC(=O)C1CC1c1ccccc1 (some centres undefined) | 13.2 µM | 29.5 µM
24 | COc1cc(/C=N/Nc2ncnc3c2cnn3-c2ccccc2)ccc1O | 4.93 µM | > 25 µM
25 | CCN(Cc1ccccc1)C1CCN(Cc2cc(Br)ccc2O)CC1 | 15.1 µM | 40.8 µM
26 | CC1=C(SCCC(=O)OC(C[Se]C2=C(C)C(=O)c3ccccc3C2=O)C(=O)NCCCCCC(=O)OCc2ccccc2)C(=O)c2ccccc2C1=O (centres undefined) | 3 µM | 8.54 µM
27 | COc1ccc2c(c1)c(-c1nc(-c3c[nH]c4ccncc34)cs1)cn2C | 0.442 µM | 1.85 µM
28 | COCc1c(-c2cc3cc(C)cc(OC)c3s2)c2c(N)ncnn2c1CN1CCNC(=O)C1 | 1.76 µM | 7.46 µM
29 | CC1(C)CNc2cc(NC(=O)c3cccnc3NCc3ccncc3)ccc21 | 12.7 µM | 66.2 µM
30 | COc1cc(Nc2ncc(-c3ccccc3)o2)cc(OC)c1 | 7.94 µM | > 25 µM
31 | COC(=O)[C@H](Cc1cnc[nH]1)NC(=O)[C@@H](NC(=O)Nc1cc(C(F)(F)F)cc(C(F)(F)F)c1)C(C)C | 11.1 µM | 25.6 µM
32 | COc1ccc(CN2c3ccccc3Sc3ccccc32)c(C(F)(F)F)c1 | 0.275 µM | 13.6 µM
33 | CCC(C)Nc1ccc(N)cc1 (centres undefined) | 2.05 µM | 6.51 µM
34 | CNC(=O)c1c(NC(=O)c2ccc(C(C)(C)C)cc2)sc2c1CCC(=O)C2 | 0.411 µM | 2.07 µM
35 | COc1cc(OC)cc(-c2n/c(=C\c3c(O)[nH]c4ccc(OC)cc34)cc3c2=Nc2ccccc2-3)c1 | 12.1 µM | 29.8 µM
36 | NC(=O)c1cc([N+](=O)[O-])c(Cl)c([N+](=O)[O-])c1Cl | 0.188 µM | 0.436 µM
37 | CC(N)(Cc1c[nH]c2cccc(F)c12)C(=O)O (centres undefined) | > 1000 µM | > 1000 µM
38 | CNC(=O)c1cc(Oc2ccc(NC(=O)Nc3ccc(Cl)c(C(F)(F)F)c3)c(F)c2)ccn1 | 2.06 µM and 1.67 µM | 5.58 µM and 7.93 µM
39 | Nc1nc([Se])c2ncn(C3OC(CO)C(O)C3O)c2n1 (centres undefined) | 50.2 µM | > 100 µM
40 | Cc1cccc2nc3ccccc3c(Nc3ccc(NS(C)(=O)=O)cc3)c12 | 8.53 µM | 26.3 µM
